Laboratory results as given in patent US5484803A, “Transcutaneous in vivo activation of photosensitive agents in blood” (priority 1995, dated 1996).

How the values were obtained:
[1] = In vitro photodegradation of BPD in mouse blood; format: physicochemical; details: for photodegraded BPD, Dose / Photodegraded BPD: in vitro
Procedure: (§1) Determination of BPD Concentration in Plasma: Plasma samples were obtained by centrifugation of blood collected from mice and stored frozen at -20° C. until assessment. The concentration of BPD in the samples was determined by fluorometry using a Jasco Model FP-770 (Japan Spectroscopic Co.) spectrofluorometer and a microcuvette (Far UV Quartz Cell, Starna Cells Inc.). Excitation and emission wavelengths were 439 and 699 nm, respectively. Plasma samples were diluted 20-fold with PBS containing 1% Triton® X-100 immediately before fluorescence was determined. BPD standards were prepared in 5% mouse plasma in PBS with 1% Triton® X-100. Under these conditions the relationship between the concentration of BPD and units of fluorescence was linear (correlation coefficient >0.99) for concentrations between 0.1 ng/ml and 1 μg/ml. The limit of detection was below 0.1 ng/ml sample which corresponded to 2 ng/ml plasma. […] The 699 nm fluorescence peak of BPD was virtually free from any interference.
In order to assess the amount of light penetrating the tissues, in vitro experiments with mouse blood were carried out. The same light source was used, therefore the spectrum of light was the same. The light doses in this experiment were selected to mimic the doses in the in vivo experiments.
Liposomal BPD was added to freshly obtained heparinized mouse blood to achieve a concentration of 1 μg/ml, following which […] aliquots of blood were dispensed into 35 mm diameter petri dishes, which were placed in the light box and exposed to red light. The dishes were irradiated in the light box from below only. The intensity of light was 35 mW/cm^2. Three different light doses, entailing exposure of 30 min, 1 hour and 1.5-hour, were 63, 126 and 189 J/cm^2, respectively. Duplicate dishes were kept covered with aluminum foil. Immediately following light exposure, the blood was collected from the dishes. Then the plasma was separated by centrifugation. The control unexposed samples were processed at time points corresponding to the light exposed samples.
The concentration of BPD in plasma separated from light-exposed and unexposed blood was determined by fluorescence. About 51-83% of BPD was degraded by the ranges of light doses used.

[2] = Pharmacokinetic studies: BPD concentration in plasma; format: in vivo, Balb/c mice; details: for Plasma Conc.: liposomal BPD
Procedure: as §1
In order to determine the level of BPD in plasma during the light treatment, the following experiment was carried out. Fourteen Balb/c mice (22±1 g of weight) were injected with liposomal BPD at 20 μg/mouse (0.9 mg/kg) in 200 μl PBS per mouse. Blood samples were obtained by heart puncture at various time intervals between 15 min and 2 hours post-injection. Exposure to light started at 15 min post-injection for some mice. The BPD concentration in plasma was determined as described above.

virus-infected T cells = details: after exposure of BPD-treated, virus-infected T cells to light; cited from earlier work
mouse blood = test: Blood parameters immediately after light exposure (acute effect); format: in vivo, mice
Procedure: Blood Tests: Blood was drawn into syringes containing 50 μl of heparin (1000 units/ml saline). Blood samples (0.45 ml) from at least 1 mouse per time point were sent to the Diagnostic Laboratory at the University Hospital, University of British Columbia site, for analysis by a Coulter Counter. Blood morphology was determined on blood films prepared from selected samples by a laboratory technologist.
Fourteen mice (weight 22±1 g) were used in this study. Twelve mice were injected with 20 μg (0.9 mg/kg) of liposomal BPD (in 200 μl) and kept in the dark for 1 hour before exposure to light. The mice each were exposed to light for 30 min, 1 hour or 1.5 hours, which delivered light doses to the skin surface of 54, 108 and 162 J/cm^2, respectively. Immediately after light exposure, blood samples were obtained. At the corresponding times, blood samples were obtained from two mice injected with BPD, but not exposed to light. Two additional mice were tested one hour after injection.

[3] = BPD 0.87 mg/kg, light 0, 1 1/2 h post inj.
[4] = BPD 0.87 mg/kg, light 0, 2 1/2 h post inj.
[5] = BPD 0.87 mg/kg, light 0, 1 h post inj.
[6] = BPD 0.93 mg/kg, light 0, 2 h post inj.
[7] = BPD 0.93 mg/kg, light 162 J/cm^2, 2 1/2 h post inj.
[8] = BPD 0.95 mg/kg, light 54 J/cm^2, 1 1/2 h post inj.
[9] = BPD 0.95 mg/kg, light 108 J/cm^2, 2 h post inj.

## benzoprophyrin derivative monoacid ring A [BPD]
[1]; 0 h, no light, BPD 1 μg/ml blood
  BPD concentration in plasma separated from blood: 0.760 µg/mL
[1]; 1 1/2 h, 189 J/cm^2
  BPD concentration in plasma separated from blood: 0.144 µg/mL
[1]; 1 1/2 h, no light
  BPD concentration in plasma separated from blood: 0.830 µg/mL
[1]; 1/2 h, 63 J/cm^2
  BPD concentration in plasma separated from blood: 0.394 µg/mL
[1]; 1/2 h, no light
  BPD concentration in plasma separated from blood: 0.806 µg/mL
[1]; 63-189 J/cm^2, about
  BPD degraded in vitro: 51-83%
[1]; 1 h, 126 J/cm^2
  BPD concentration in plasma separated from blood: 0.220 µg/mL
[1]; 1 h, no light
  BPD concentration in plasma separated from blood: 0.810 µg/mL
[1]; 63 J/cm^2
  photodegraded BPD, Dose: 0.412 µg/mL
[1]; 63 J/cm^2, 1/2 h, 30 min
  Photodegraded BPD: 51%
[1]; 126 J/cm^2
  photodegraded BPD, Dose: 0.590 µg/mL
[1]; 126 J/cm^2, 1 h
  Photodegraded BPD: 73%
[1]; 189 J/cm^2
  photodegraded BPD, Dose: 0.686 µg/mL
[1]; 189 J/cm^2, 1 1/2 h, 90 min
  Photodegraded BPD: 83%
[2]; 1 hour post-injection, as in Example 1, 0.9 mg/kg
  plasma level of BPD at the beginning of exposure to light: about 4 μg/ml
[2]; 0.83 mg/kg, 20 min post injection
  Plasma Conc.: 4680 ng/mL
[2]; 0.83 mg/kg, 2 h 5 min post injection (text: 2 hours), 125 min
  Plasma Conc.: 2440 ng/mL
[2]; 0.87 mg/kg, 15 min post injection
  Plasma Conc.: 6320 ng/mL
[2]; 0.87 mg/kg, 1 h 38 min post injection, 98 min
  Plasma Conc.: 1800 ng/mL
[2]; 0.87 mg/kg, 1 h 42 min post injection, 102 min
  Plasma Conc.: 3220 ng/mL
[2]; 0.91 mg/kg, 1 h 24 min post injection, 84 min
  Plasma Conc.: 2920 ng/mL
[2]; 0.91 mg/kg, 1 h 32 min post injection, 92 min
  Plasma Conc.: 2980 ng/mL
[2]; 0.95 mg/kg, 1 h 23 min post injection, 83 min
  Plasma Conc.: 3260 ng/mL
virus-infected T cells
  effect on virus-infected T cell membrane: holes developed in the T cell membrane, which increased in size until the membrane completely decomposed
Mouse blood; 0.9 mg/kg liposomal BPD, 54-162 J/cm^2
  acute effect on blood parameters: no acute effect on blood parameters was observed
Mouse blood; [3]
  HB: 117 g/L
  Hct: 0.329
  MCV: 48.7 fL
  PLT: 428 10^6 /ml
  RBC: 6.77 10^9 /ml
  WBC: 4.4 10^6 /ml
Mouse blood; [4]
  HB: 129 g/L
  Hct: 0.372
  MCV: 48.5 fL
  PLT: 447 10^6 /ml
  RBC: 7.68 10^9 /ml
  WBC: 3.9 10^6 /ml
Mouse blood; [5]
  HB: 124 g/L
  Hct: 0.368
  MCV: 48.4 fL
  PLT: 608 10^6 /ml
  RBC: 7.61 10^9 /ml
  WBC: 5.5 10^6 /ml
Mouse blood; [6]
  HB: 129 g/L
  Hct: 0.382
  MCV: 49.1 fL
  PLT: 475 10^6 /ml
  RBC: 7.79 10^9 /ml
  WBC: 11.4 10^6 /ml
Mouse blood; [7]
  HB: 116 g/L
  Hct: 0.353
  MCV: 49.2 fL
  PLT: 506 10^6 /ml
  RBC: 7.17 10^9 /ml
  WBC: 4.9 10^6 /ml
Mouse blood; [8]
  HB: 127 g/L
  Hct: 0.363
  MCV: 49.9 fL
  PLT: 613 10^6 /ml
  RBC: 7.28 10^9 /ml
  WBC: 7.0 10^6 /ml
Mouse blood; [9]
  HB: 131 g/L
  Hct: 0.378
  MCV: 50.1 fL
  PLT: 440 10^6 /ml
  RBC: 7.53 10^9 /ml
  WBC: 8.5 10^6 /ml
